Entries after “also recorded” stand apart in the source; their conditions may differ.

One data set deals with vagina. The data set can be described thus: Irritation test in shallow region of the vagina (volunteer). The data set is classed as in vivo, human.
The next data set deals with HIV-1. Kind of data set: High-titer HIV infectivity test (two-step incubation, p24 ELISA). The data set is classed as cell-based. The settings on record: for HIV infectivity: high-titer stock. The procedure: The initial set of HIV tests were carried out at Biotech Research Laboratories (Rockville, Md.). The HIV-1 viral isolate and H-9 cell line were originally supplied by Robert Gallo of the NCI.
In a first set of tests, 20 mg of zinc acetate powder (ZnAc, MW 183.4) was mixed in 1 ml RPMI cell culture medium (Whittaker Corp.). This 2% (w/v) salt mixture contained 7 mg/ml elemental Zn. […] Therefore, a small quantity of HCl was added until the mixture became clear; the pH was about 5.5. The Zn concentration was reduced by half (and the pH was raised somewhat) when an equal volume (1 ml) of cell-free high-titer HIV-1 viral stock was added. The zinc/virus mixture was stirred and incubated for 2 hours at 37° C. (i.e., normal body temperature).
Following this first incubation step, the zinc/virus mixtures were diluted at 1:10, 1:30, and 1:100 ratios using culture medium, and aliquots were added to equal volumes of culture media containing H-9 lymphocytes that had been pretreated overnight with 2 μg/ml Polybreen. The lymphocyte mixtures were incubated for three hours at 37° C.; zinc concentrations during this step were 180, 60, and 18 μg/ml for the 1:10, 1:30, and 1:100 dilutions.
The cell aliquots were then washed twice, using culture medium, to remove free p24 proteins that are present in the initial viral stock. Such proteins will skew ELISA readings if not removed by washing. Cells were then resuspended in fresh medium containing 10% fetal calf serum (FCS) and cultured for 20 days. During this period, each tube was periodically sampled by hand-mixing the tube, withdrawing 100 μl of liquid from the top, and testing the sample for p24 antigens using ELISA assays.
A positive control was used at each dilution. Viral aliquots not treated with zinc were identically diluted, mixed with lymphocytes, cultured, and tested. Negative controls were also run, in which H-9 cells were plated and grown in the absence of any virus or zinc; these provided background levels that vary slightly from day to day, depending on factors such as spectrophotometer calibrations and rinsing conditions.
A general note: ELISA stands for enzyme-linked immunosorbent assay.

For data set [1] the following is noted: water; cited from earlier work.
Data set [2] in a line: Acidity tests: pH of 5% w/v zinc salt solutions. The note with it: 5% w/v in distilled deionized water.

Text for vagina: In all examples, the test subjects were a monogamous married couple, free of genital herpes and all other known sexually transmitted viruses.

Zinc acetate: the “irritation, vagina” value in the data set on vagina (dissolved in (distilled) water alone) is given as “unpleasant tingling or mild burning sensation; also recorded: vaginal irritation”. Further, in the data set with vagina (gel in K-Y Lubricating Jelly, about 5% w/v, passive test), the “irritation, vagina / female genitals” value is “no tingling, burning, or other unpleasant sensation”. Moreover, the p24 concentrations result with HIV-1 (1% zinc acetate 2 h, diluted 1:30 (60 μg/ml Zn), 20 days culture) is recorded as “indistinguishable from background levels”. Moreover, the HIV infectivity result is “completely eliminated” in the data set with HIV-1 (1% zinc acetate 2 h, diluted 1:30 (60 μg/ml Zn)); “completely abolished viral infectivity” with HIV-1 (1% zinc acetate 2 h, diluted 1:30 (60 μg/ml Zn), listed as ZnAc); “reduced and delayed” in the data set with HIV-1 (1% zinc acetate 2 h, diluted 1:100 (18 μg/ml Zn)); “suppressed and retarded HIV infectivity” with HIV-1 (1% zinc acetate 2 h, diluted 1:100 (18 μg/ml Zn), listed as ZnAc). Also, in the data set on HIV-1 (two-step incubation assay, FIGS. 1-4), the “inhibition of HIV particles (summary of Examples 8-10)” value is “inhibited or entirely inactivated the HIV particles”. Besides, the Molar solubility in data set [1] is recorded as 1.64. Also, the Solubility in data set [1] is on record as 300. In addition, the “pH of solution (rounded)” value in data set [2] was “about 6.2”. For the same substance, the pH of solution in data set [2] (0.05 subtracted from meter reading, approximately accurate) was determined as 6.27.

The values above are taken from patent publication US6321750A, “Condom lubricants with zinc salts as anti-viral additives” (priority 1999, dated 2001).
